Values quoted from earlier work in EP0438554B1, “NITROGENOUS AMBRUTICINES, PROCESS FOR OBTAINING THEM AND THEIR USE” (Gesellschaft für Biotechnologische Forschung mbH (GBF), priority 1989, dated 1991).

Conditions: in vitro; S.M. Ringel et al., J. of Antibiotics 30, 371 (1977)

CC[C@H]1O[C@@H](/C(C)=C/[C@H](C)/C=C/[C@H]2[C@@H](C)[C@@H]2/C=C/[C@@H]2O[C@H](CC(=O)O)C[C@H](O)[C@H]2O)CC=C1C [Ambruticin]
antibakterielle Wirkung: schwach antibakterielle
